Test results reported in patent US20240398828A1, “HETERO-ATOM CONTAINING COMPOUNDS AND USES THEREOF” (Kumquat Biosciences Inc., priority 2021, published 2024).

How the values were obtained:
PTPN2 (i.e., TC-PTP) = biological target: T1, PTPN2 (i.e., TC-PTP) (Homo sapiens, UniProt P17706); assay: Phosphatase activity assay (DiFMUP substrate), PTPN2; type: biochemical; conditions: compounds binned ≤1 uM or >1 uM
T1 sequence (P17706 1-415): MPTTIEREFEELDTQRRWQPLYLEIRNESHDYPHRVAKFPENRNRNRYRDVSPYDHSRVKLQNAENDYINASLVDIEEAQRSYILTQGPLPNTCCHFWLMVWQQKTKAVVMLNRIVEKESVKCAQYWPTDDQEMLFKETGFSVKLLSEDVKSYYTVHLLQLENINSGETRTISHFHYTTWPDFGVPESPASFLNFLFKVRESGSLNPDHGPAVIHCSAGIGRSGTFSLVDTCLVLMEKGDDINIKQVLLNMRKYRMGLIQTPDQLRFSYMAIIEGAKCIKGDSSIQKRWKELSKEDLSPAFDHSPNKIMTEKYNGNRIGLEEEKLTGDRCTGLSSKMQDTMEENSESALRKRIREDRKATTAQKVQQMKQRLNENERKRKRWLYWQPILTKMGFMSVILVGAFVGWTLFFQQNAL
Method in brief: (§1)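 RT, HEPES pH 7.5 buffer with DTT/Tween-20. 10-point inhibitor series premixed ~2 min with enzyme (PTPN2 0.025 ng/ul). Start with DiFMUP at enzyme Km (~45 μM for PTPN2). Read DiFMU ex360/em450 continuously 15–30 min; initial rate vs concentration, 4-parameter fit → IC50.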

PTPN1 (i.e., PTP1B) = biological target: T2, PTPN1 (i.e., PTP1B) (Homo sapiens, UniProt P18031); assay: Phosphatase activity assay (DiFMUP substrate), PTP1B; type: biochemical; conditions: compounds binned ≤1 uM or >1 uM
T2 sequence (P18031 1-435): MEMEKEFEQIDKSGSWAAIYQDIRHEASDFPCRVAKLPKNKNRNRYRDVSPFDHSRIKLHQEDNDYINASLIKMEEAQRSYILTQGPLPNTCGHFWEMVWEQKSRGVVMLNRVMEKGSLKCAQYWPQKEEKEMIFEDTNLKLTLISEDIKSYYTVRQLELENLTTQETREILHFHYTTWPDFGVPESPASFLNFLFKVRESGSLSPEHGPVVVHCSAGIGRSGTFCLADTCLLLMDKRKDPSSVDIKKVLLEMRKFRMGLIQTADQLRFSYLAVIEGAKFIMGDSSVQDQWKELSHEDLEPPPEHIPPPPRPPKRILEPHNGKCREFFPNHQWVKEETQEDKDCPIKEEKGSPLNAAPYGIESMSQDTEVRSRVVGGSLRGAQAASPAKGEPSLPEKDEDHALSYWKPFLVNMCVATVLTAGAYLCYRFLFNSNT
Method in brief: as §1

| SMILES | IC50 (PTPN2 (i.e., TC-PTP)) | IC50 (PTPN1 (i.e., PTP1B)) |
| --- | --- | --- |
| N#C[C@H]1CC[C@@H](n2cnc(-c3ccc(O)c(N4CC(=O)NS4(=O)=O)c3F)c2)CC1 [Compound 357, (1s,4s)-4-(4-(3-(1,1-dioxido-4-oxo-1,2,5-thiadiazolidin-2-yl)-2-fluoro-4-hydroxyphenyl)-1H-imidazol-1-yl)cyclohexane-1-carbonitrile] | ≤ 1 µM | ≤ 1 µM |
| O=C1CN(c2c(O)ccc(-n3cc(C4CC4)cn3)c2F)S(=O)(=O)N1 [Compound 270, 5-(3-(4-cyclopropyl-1H-pyrazol-1-yl)-2-fluoro-6-hydroxyphenyl)-1,2,5-thiadiazolidin-3-one 1,1-dioxide] | > 1 µM | > 1 µM |
| CC(C)CNCc1cc(-c2ccc(O)c(N3CC(=O)NS3(=O)=O)c2F)nn1C [Compound 288, 5-(2-fluoro-6-hydroxy-3-(5-((isobutylamino)methyl)-1-methyl-1H-pyrazol-3-yl)phenyl)-1,2,5-thiadiazolidin-3-one 1,1-dioxide] | ≤ 1 µM | ≤ 1 µM |
| C[C@H]1C=C(c2ccc(O)c(N3CC(=O)NS3(=O)=O)c2F)CN1 [Compound 504, (S)-5-(2-fluoro-6-hydroxy-3-(5-methyl-2,5-dihydro-1H-pyrrol-3-yl)phenyl)-1,2,5-thiadiazolidin-3-one 1,1-dioxide] | ≤ 1 µM | ≤ 1 µM |
| O=C1CN(c2c(O)ccc(-c3cc(C4CC4)n(CC(F)F)n3)c2F)S(=O)(=O)N1 [Compound 435, 5-(3-(5-cyclopropyl-1-(2,2-difluoroethyl)-1H-pyrazol-3-yl)-2-fluoro-6-hydroxyphenyl)-1,2,5-thiadiazolidin-3-one 1,1-dioxide] | ≤ 1 µM | ≤ 1 µM |
| O=C1CN(c2c(O)ccc(-c3ccc(NS(=O)(=O)C4CCC4)cc3)c2F)S(=O)(=O)N1 [Compound 335, N-(3′-(1,1-dioxido-4-oxo-1,2,5-thiadiazolidin-2-yl)-2′-fluoro-4′-hydroxy-[1,1′-biphenyl]-4-yl)cyclobutanesulfonamide] | ≤ 1 µM | ≤ 1 µM |
| N#CC1(n2cc(-c3ccc(O)c(N4CC(=O)NS4(=O)=O)c3F)c(F)n2)CC1 [Compound 474, 1-(4-(3-(1,1-dioxido-4-oxo-1,2,5-thiadiazolidin-2-yl)-2-fluoro-4-hydroxyphenyl)-3-fluoro-1H-pyrazol-1-yl)cyclopropane-1-carbonitrile] | ≤ 1 µM | ≤ 1 µM |
| COc1ccc(-c2cnc(O)nc2)c(F)c1N1CC(=O)NS1(=O)=O [Compound 105, 5-(2-fluoro-3-(2-hydroxypyrimidin-5-yl)-6-methoxyphenyl)-1,2,5-thiadiazolidin-3-one 1,1-dioxide] | > 1 µM | > 1 µM |
| O=C1CN(c2c(O)ccc(-c3cnn(Cc4cccc(Cl)c4)c3)c2F)S(=O)(=O)N1 [Compound 223, 5-(3-(1-(3-chlorobenzyl)-1H-pyrazol-4-yl)-2-fluoro-6-hydroxyphenyl)-1,2,5-thiadiazolidin-3-one 1,1-dioxide] | ≤ 1 µM | ≤ 1 µM |
| O=C1CN(c2c(O)ccc(-c3cc(C4CC4)n(C(F)F)n3)c2F)S(=O)(=O)N1 [Compound 518, 5-(3-(5-cyclopropyl-1-(difluoromethyl)-1H-pyrazol-3-yl)-2-fluoro-6-hydroxyphenyl)-1,2,5-thiadiazolidin-3-one 1,1-dioxide] | ≤ 1 µM | ≤ 1 µM |
| O=C1CN(c2c(O)ccc(-c3cc(C4CC4)n(C4CC4)n3)c2F)S(=O)(=O)N1 [Compound 429, 5-(3-(1,5-dicyclopropyl-1H-pyrazol-3-yl)-2-fluoro-6-hydroxyphenyl)-1,2,5-thiadiazolidin-3-one 1,1-dioxide] | ≤ 1 µM | ≤ 1 µM |
| N#CC1(c2cc(-c3ccc(O)c(N4CC(=O)NS4(=O)=O)c3F)[nH]n2)CC1 [Compound 441, 1-(5-(3-(1,1-dioxido-4-oxo-1,2,5-thiadiazolidin-2-yl)-2-fluoro-4-hydroxyphenyl)-1H-pyrazol-3-yl)cyclopropane-1-carbonitrile] | ≤ 1 µM | ≤ 1 µM |
| O=C1CN(c2c(O)ccc(C3=CCOCC3)c2F)S(=O)(=O)N1 [Compound 405, 5-(3-(3,6-dihydro-2H-pyran-4-yl)-2-fluoro-6-hydroxyphenyl)-1,2,5-thiadiazolidin-3-one 1,1-dioxide] | ≤ 1 µM | ≤ 1 µM |
| O=C1CN(c2c(O)ccc(-c3cc(C4CC4)n(CC4CCNC4)n3)c2F)S(=O)(=O)N1 (stereo not shown) [Compound 329, 5-(3-(5-cyclopropyl-1-(pyrrolidin-3-ylmethyl)-1H-pyrazol-3-yl)-2-fluoro-6-hydroxyphenyl)-1,2,5-thiadiazolidin-3-one 1,1-dioxide] | ≤ 1 µM | ≤ 1 µM |
| O=C1CN(c2c(O)ccc(-c3cnn(C(=O)C4CC4)c3)c2F)S(=O)(=O)N1 [Compound 537, 5-(3-(1-(cyclopropanecarbonyl)-1H-pyrazol-4-yl)-2-fluoro-6-hydroxyphenyl)-1,2,5-thiadiazolidin-3-one 1,1-dioxide] | ≤ 1 µM | ≤ 1 µM |
| O=C1CN(c2c(O)ccc(-c3cn(C4CCC(Br)CC4)cn3)c2F)S(=O)(=O)N1 (stereo not shown) [Compound 423, 5-(3-(1-(4-bromocyclohexyl)-1H-imidazol-4-yl)-2-fluoro-6-hydroxyphenyl)-1,2,5-thiadiazolidin-3-one 1,1-dioxide] | ≤ 1 µM | ≤ 1 µM |
| O=C1CN(c2c(O)ccc(-c3cc(C4CCC4)n[nH]3)c2F)S(=O)(=O)N1 [Compound 281, 5-(3-(3-cyclobutyl-1H-pyrazol-5-yl)-2-fluoro-6-hydroxyphenyl)-1,2,5-thiadiazolidin-3-one 1,1-dioxide] | ≤ 1 µM | ≤ 1 µM |
| COc1cc(-c2ccc(O)c(N3CC(=O)NS3(=O)=O)c2F)[nH]n1 [Compound 428, 5-(2-fluoro-6-hydroxy-3-(3-methoxy-1H-pyrazol-5-yl)phenyl)-1,2,5-thiadiazolidin-3-one 1,1-dioxide] | ≤ 1 µM | ≤ 1 µM |
| CN(C)C(=O)n1cc(-c2ccc(O)c(N3CC(=O)NS3(=O)=O)c2F)cn1 [Compound 532, 4-(3-(1,1-dioxido-4-oxo-1,2,5-thiadiazolidin-2-yl)-2-fluoro-4-hydroxyphenyl)-N,N-dimethyl-1H-pyrazole-1-carboxamide] | ≤ 1 µM | ≤ 1 µM |
| O=C1CN(c2c(O)ccc(-c3ccc4cccnc4c3)c2F)S(=O)(=O)N1 [Compound 138, 5-(2-fluoro-6-hydroxy-3-(quinolin-7-yl)phenyl)-1,2,5-thiadiazolidin-3-one 1,1-dioxide] | ≤ 1 µM | ≤ 1 µM |
| N#Cc1ccc(Cn2cc(-c3ccc(O)c(N4CC(=O)NS4(=O)=O)c3F)cn2)cc1 [Compound 224, 4-((4-(3-(1,1-dioxido-4-oxo-1,2,5-thiadiazolidin-2-yl)-2-fluoro-4-hydroxyphenyl)-1H-pyrazol-1-yl)methyl)benzonitrile] | ≤ 1 µM | ≤ 1 µM |
| CC(C)CCn1cnc(-c2ccc(O)c(C3=CC(=O)NS3(=O)=O)c2F)c1 [Compound 391, 5-(2-fluoro-6-hydroxy-3-(1-isopentyl-1H-imidazol-4-yl)phenyl)isothiazol-3(2H)-one 1,1-dioxide] | ≤ 1 µM | ≤ 1 µM |
| CC(=O)N(C)C1CCC=C(c2ccc(O)c(N3CC(=O)NS3(=O)=O)c2F)C1 (stereo not shown) [Compound 232, N-(3′-(1,1-dioxido-4-oxo-1,2,5-thiadiazolidin-2-yl)-2′-fluoro-4′-hydroxy-2,3,4,5-tetrahydro-[1,1′-biphenyl]-3-yl)-N-methylacetamide] | ≤ 1 µM | ≤ 1 µM |
| O=C1CN(c2c(O)ccc(-c3cc(C4(C(F)F)CC4)n[nH]3)c2F)S(=O)(=O)N1 [Compound 526, 5-(3-(3-(1-(difluoromethyl)cyclopropyl)-1H-pyrazol-5-yl)-2-fluoro-6-hydroxyphenyl)-1,2,5-thiadiazolidin-3-one 1,1-dioxide] | ≤ 1 µM | ≤ 1 µM |
| O=C1CN(c2c(O)ccc(C3=CCN(S(=O)(=O)C4CC4)CC3)c2F)S(=O)(=O)N1 [Compound 355, 5-(3-(1-(cyclopropylsulfonyl)-1,2,3,6-tetrahydropyridin-4-yl)-2-fluoro-6-hydroxyphenyl)-1,2,5-thiadiazolidin-3-one 1,1-dioxide] | ≤ 1 µM | ≤ 1 µM |
| Cn1nc(-c2ccc(O)c(N3CC(=O)NS3(=O)=O)c2F)cc1C1(N)CC1 [Compound 345, 5-(3-(5-(1-aminocyclopropyl)-1-methyl-1H-pyrazol-3-yl)-2-fluoro-6-hydroxyphenyl)-1,2,5-thiadiazolidin-3-one 1,1-dioxide] | ≤ 1 µM | ≤ 1 µM |
